Test results from the supplement of paper PMC7840683.
± gives the standard deviation of the averaged measurements.

Test system: HepaRG
Test: LDH release cytotoxicity, % of total lysis control; higher = more cytotoxic
Settings: 48 h
How it was run: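 On collagen I-coated 96-well plates, single-lot HepaRG cells were exposed for 48 h, in duplicate, to eight-point half-log series of test chemicals beginning at 100 µM. The exposure medium was serum-free induction medium with 0.5% DMSO, and total lysis wells got 0.1% Triton X. Resorufin fluorescence from the CytoTox-ONE reaction, read on a Tecan Safire, reported LDH in 50 µL of spent medium. Percent cytotoxicity came from normalization to on-plate vehicle and total lysis controls, averaged over the duplicates.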

Compound | LDH release cytotoxicity (0.03162 µM) [%] | LDH release cytotoxicity (0.1 µM) [%] | LDH release cytotoxicity (0.3162278 µM) [%] | LDH release cytotoxicity (1 µM) [%] | LDH release cytotoxicity (3.16228 µM) [%] | LDH release cytotoxicity (10 µM) [%] | LDH release cytotoxicity (31.6228 µM) [%] | LDH release cytotoxicity (100 µM) [%] | other results
NC(N)=O [Urea] | -1.69 ± 0.59 | -0.896 ± 0.18 | -1.17 ± 0.012 | -1.62 ± 0.5 | -0.792 ± 0.012 | -0.693 ± 0.13 | -1.24 ± 0.23 | 1.24 ± 0.49 | 
CCOC(N)=O [Urethane] | -1.53 ± 1 | -1.5 ± 0.84 | -1.42 ± 0.68 | -1.29 ± 0.5 | -1.03 ± 0.12 | -1.2 ± 0.054 | -0.4372 ± 0.0016 | 0.365 ± 1.2 | 
CCCC(CCC)C(=O)O [Valproic acid] |  | -2.27 ± 0.28 |  | -2.73 ± 0.65 | -1.85 ± 0.16 | -2.14 ± 2 | -1.38 ± 0.12 | -0.176 ± 0.59 | LDH release cytotoxicity (0.031623 µM): -0.788 ± 0.37%; LDH release cytotoxicity (0.316228 µM): -1.27 ± 1.4%
CCCSC(=O)N(CCC)CCC [Vernolate] | -0.794 ± 1.3 | -0.827 ± 0.35 | -0.738 ± 0.55 | -2.07 ± 0.39 | -1.14 ± 0.45 | -0.659 ± 0.55 | 0.0809 ± 0.59 | 1.84 ± 0.39 | 
C=CC1(C)OC(=O)N(c2cc(Cl)cc(Cl)c2)C1=O (centres undefined) [Vinclozolin] |  | -2.45 ± 0.46 |  | -1.77 ± 2.5 | -1.59 ± 1.1 | -1.87 ± 1.3 | -1.19 ± 0.41 | 0.481 ± 0.36 | LDH release cytotoxicity (0.031623 µM): -0.342 ± 2.7%; LDH release cytotoxicity (0.316228 µM): -2.11 ± 1.4%
COc1cccc(C(O)C2CCN(CCc3ccc(F)cc3)CC2)c1OC (centres undefined) [Volinanserin] | -0.377 ± 0.72 | -1.03 ± 1.4 | 0.298 ± 1.8 | -0.566 ± 0.98 | -0.0858 ± 0.33 | -1.21 ± 0.87 | 0.408 ± 1.3 | 7.12 ± 0.34 | 
CC(=O)CC(c1ccccc1)C1C(=O)Oc2ccccc2C1=O (centres undefined) [Warfarin] | -1.66 ± 0.38 | -1.26 ± 0.31 | -0.808 ± 0.67 | -0.262 ± 1.4 | -0.866 ± 0.073 | -0.731 ± 0.26 | 0.385 ± 0.24 | 2.56 ± 0.55 | 
Cc1occc1C(=O)Nc1ccc(C(=O)N2CCC(F)(F)/C(=C\C(=O)N3CCC(N4CCCCC4)CC3)c3ccccc32)cc1 [YM218] |  |  |  |  |  |  |  |  | LDH release cytotoxicity (0.01976 µM): -1.36 ± 0.064%; LDH release cytotoxicity (0.0625 µM): -1.93 ± 1.9%; LDH release cytotoxicity (0.197642 µM): -3.13 ± 1.1%; LDH release cytotoxicity (0.625 µM): -2.977 ± 0.0083%; LDH release cytotoxicity (1.976424 µM): -3.81 ± 0.63%; LDH release cytotoxicity (6.25 µM): -2.99 ± 0.55%; LDH release cytotoxicity (19.7642 µM): -1.84 ± 0.55%; LDH release cytotoxicity (62.5 µM): 19.8 ± 2.1%
c1ccc(C(OC2CCCN(CCc3ccc4c(c3)OCO4)C2)c2ccccc2)cc1 (centres undefined) [Zamifenacin] | -1.023 ± 0.0016 | -1.51 ± 0.059 | -1.31 ± 0.77 | -1.54 ± 0.46 | -1.68 ± 1.4 | -1.11 ± 0.43 | 2 ± 0.19 | 51.7 ± 1.1 | 
O=C(O)Cn1c(=O)n(Cc2ccc(Br)cc2F)c(=O)c2ccc(Cl)cc21 [Zenarestat] | -0.858 ± 0.89 | -0.293 ± 1.2 | -0.841 ± 0.43 | -0.408 ± 0.56 | -0.109 ± 1.5 | 0.443 ± 0.12 | -0.513 ± 0.13 | 0.792 ± 0.4 | 
CN(C)C(=S)[S-].CN(C)C(=S)[S-].[Zn+2] [Ziram] | -1.6 ± 0.3 | -1.5 ± 0.095 | -1.92 ± 1.4 | -1.52 ± 0.12 | -1.1 ± 0.12 | -0.764 ± 0.98 | 37.6 ± 4 | 46.8 ± 1.6 | 
CCC(C)(NC(=O)c1cc(Cl)c(C)c(Cl)c1)C(=O)CCl (centres undefined) [Zoxamide] |  |  |  |  |  |  |  |  | LDH release cytotoxicity (0.0317809 µM): -0.27 ± 0.064%; LDH release cytotoxicity (0.1005 µM): -0.966 ± 0.8%; LDH release cytotoxicity (0.317809 µM): -0.7429 ± 0.0016%; LDH release cytotoxicity (1.005 µM): -1.43 ± 0.81%; LDH release cytotoxicity (3.17809 µM): -0.947 ± 0.12%; LDH release cytotoxicity (10.05 µM): -0.343 ± 0.64%; LDH release cytotoxicity (31.7809 µM): -1.15 ± 0.96%; LDH release cytotoxicity (100.5 µM): 41.9 ± 2.7%
CC(C=CC1=C(C)CCCC1(C)C)=CC=CC(C)=CC(=O)O [all-trans-Retinoic acid] | -2.15 ± 0.83 | -2.16 ± 0.56 | -1.95 ± 0.22 | -2.25 ± 1.9 | -2.56 ± 0.86 | -1.87 ± 0.4 | -1.86 ± 2 | 2.13 ± 3 | 
OCC1OC2OC3C(CO)OC(OC4C(CO)OC(OC5C(CO)OC(OC6C(CO)OC(OC7C(CO)OC(OC1C(O)C2O)C(O)C7O)C(O)C6O)C(O)C5O)C(O)C4O)C(O)C3O (stereo not drawn) [alpha-Cyclodextrin] |  |  |  |  |  |  |  |  | LDH release cytotoxicity (0.016602 µM): -2.18 ± 0.47%; LDH release cytotoxicity (0.0525 µM): -2.3 ± 0.3%; LDH release cytotoxicity (0.16602 µM): -1.73 ± 1.5%; LDH release cytotoxicity (0.525 µM): -2.65 ± 2%; LDH release cytotoxicity (1.6602 µM): -2.1 ± 0.45%; LDH release cytotoxicity (5.25 µM): -1.71 ± 0.9%; LDH release cytotoxicity (16.601958 µM): -1.44 ± 0.78%; LDH release cytotoxicity (52.5 µM): 0.413 ± 1.5%
CC(=O)C(C)=CC1C(C)=CCCC1(C)C (stereo not drawn) [alpha-Isomethylionone] | -0.906 ± 0.49 | -1.92 ± 0.022 | -1.73 ± 0.24 | -1.69 ± 0.3 | -1.11 ± 0.41 | -1.8 ± 0.12 | -0.46 ± 0.73 | 0.422 ± 0.12 | 
ClC1C(Cl)C(Cl)C(Cl)C(Cl)C1Cl (stereo not drawn) [beta-Hexachlorocyclohexane] | -4.28 ± 0.89 | -4.78 ± 1.2 | -4.47 ± 0.78 | -4.51 ± 0.96 | -3.52 ± 0.096 | -2.88 ± 0.6 | -2.3 ± 2 | -0.552 ± 0.4 | 
CCC(c1ccc(O)cc1)C(CC)c1ccc(O)cc1 (stereo not drawn) [meso-Hexestrol] | -1.95 ± 0.96 | -2.35 ± 0.15 | -1.46 ± 0.23 | -1.95 ± 0.05 | -1.99 ± 0.005 | -1.59 ± 0.53 | 0.514 ± 0.37 | 75.4 ± 1.7 | 
Clc1ccc(C(c2ccccc2Cl)C(Cl)(Cl)Cl)cc1 (centres undefined) [o,p'-DDT] | 0.598 ± 0.81 | -1.38 ± 0.27 | -0.542 ± 0.35 | -0.286 ± 0.43 | 2.06 ± 0.81 | 10.3 ± 2.1 | 12.9 ± 0.91 | 8.46 ± 0.97 | 
